Where two headings read alike, the source gives them in different places. Values belong to the compound of their own block, whether it stands above or below them.
Tests used:
FABP4 = FABP4 (Homo sapiens, UniProt P15090); assay: FABP4 inhibition; conditions: Fig. S5
[1] = tested on: formalin-induced mouse models; conditions: cited from earlier work
FABP7 [2] = molecular target: T1, FABP7 (Homo sapiens, UniProt O15540); assay: Direct ligand binding assay of fluorescent probes, FABP7
[3] = Dynamic light scattering, colloidal aggregation; format: physicochemical; conditions: 20 μM in PBS, 24°C
FABP3 [4] = molecular target: T2, FABP3 (Homo sapiens, UniProt P05413); assay: Direct ligand binding assay of fluorescent probes, FABP3
T2 sequence (P05413 whole entry): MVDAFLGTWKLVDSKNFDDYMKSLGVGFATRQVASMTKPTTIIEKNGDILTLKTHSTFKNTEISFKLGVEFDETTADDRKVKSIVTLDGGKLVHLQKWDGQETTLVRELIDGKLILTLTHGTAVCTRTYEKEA

FABP5 [5] = molecular target: T3, FABP5 (Homo sapiens, UniProt Q01469); assay: Direct ligand binding assay of fluorescent probes, FABP5
T3 sequence (Q01469 whole entry): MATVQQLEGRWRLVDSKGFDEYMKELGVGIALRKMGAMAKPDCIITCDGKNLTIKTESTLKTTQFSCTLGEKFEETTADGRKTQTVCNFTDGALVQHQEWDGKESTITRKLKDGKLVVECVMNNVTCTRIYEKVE

FABP7 [6] = molecular target: T1, FABP7; conditions: read-out: Kd towards FABP7; determined in a previous study; cited from earlier work
FABP3 [7] = molecular target: T2, FABP3; conditions: read-out: Kd towards FABP3; determined in a previous study; cited from earlier work
FABP5 [8] = molecular target: T3, FABP5; conditions: read-out: Kd towards FABP5; determined in a previous study; cited from earlier work

Chain of FABP4 (P15090 whole entry): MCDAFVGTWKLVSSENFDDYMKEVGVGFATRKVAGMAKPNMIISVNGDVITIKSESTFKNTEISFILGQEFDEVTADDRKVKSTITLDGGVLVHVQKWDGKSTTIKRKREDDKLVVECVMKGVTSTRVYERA
T1 sequence (O15540 whole entry): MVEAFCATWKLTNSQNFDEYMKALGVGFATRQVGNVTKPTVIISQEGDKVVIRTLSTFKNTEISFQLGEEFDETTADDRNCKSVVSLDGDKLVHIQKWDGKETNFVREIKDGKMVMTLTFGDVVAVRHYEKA

Structure (SMILES): C#Cc1cccc(OC(=O)[C@H]2[C@@H](c3ccccc3)[C@H](C(=O)O)[C@@H]2c2ccccc2)c1 (racemic) [Compound 3f, 1-(3-Ethynylphenyl) α-3-hydroxycarbonyl-2,4-diphenylcyclobutane-1-carboxylate]
- FABP4 inhibition (FABP4): do not appreciably inhibit FABP4

Structure (SMILES): COc1cc([C@H]2[C@H](C(=O)O[C@@H]3C[C@@H]4[C@@H](CN(C)C[C@@H]4C)[C@@H]3C)[C@H](c3ccc(O)c(OC)c3)[C@H]2C(=O)O[C@@H]2C[C@@H]3[C@@H](CN(C)C[C@@H]3C)[C@@H]2C)ccc1O [(-)-incarvillateine]
- analgesic and anti-inflammatory effects [1]: potent analgesic and anti-inflammatory effects

Structure (SMILES): O=S(=O)(O)c1cccc2cccc(Nc3ccccc3)c12 [ANS, 1-Anilinonaphthalene-8-sulfonic Acid]
- Kd (FABP7 [2]): 1.01 µM

Structure (SMILES): O=C(O)C1C(c2ccccc2)C(C(=O)O[C@@H]2CCCC[C@H]2c2ccccc2)C1c1ccccc1 (stereo partly drawn) [Compound 3l, 1-[(1R,2S)-2-Phenylcyclohexyl] α-3-hydroxycarbonyl-2,4-diphenylcyclobutane-1-carboxylate]
- colloidal aggregation by DLS [3]: no evidence of colloidal aggregation

Structure (SMILES): CN(C)c1cccc2c(S(=O)(=O)NCCCCCCCCCCC(=O)O)cccc12 [DAUDA, 11-[5-(Dimethylamino)-1-naphthalenesulfonyl-amino]undecanoic acid]
- Kd (FABP3 [4]): 2.04 µM
- Kd (FABP5 [5]): 2.56 µM

Structure (SMILES): CCCCCCC(CCCCCCCCCCC(=O)O)N(C)c1ccc([N+](=O)[O-])c2nonc12 (centres unmarked) [NBD-stearate, 12-N-methyl-(7-nitrobenz-2-oxa-1,3-diazo)aminostearic acid]
- Kd (FABP7 [6]): 0.22 µM
- Kd (FABP3 [7]): 0.018 µM
- Kd (FABP5 [8]): 0.16 µM

Continued, values first:

- FABP4 inhibition (FABP4): do not appreciably inhibit FABP4
Structure (SMILES): COc1ccccc1[C@H]1[C@H](C(=O)O)[C@H](c2ccccc2OC)[C@H]1C(=O)Oc1cccc2ccccc12 (racemic) [Compound 4b, 1-Naphthyl α-3-hydroxycarbonyl-2,4-di(2-methoxylphenyl)cyclobutane-1-carboxylate]

- FABP4 inhibition (FABP4): do not appreciably inhibit FABP4
Structure (SMILES): COc1ccccc1[C@H]1[C@H](C(=O)O)[C@H](c2ccccc2OC)[C@H]1C(=O)OCC1c2ccccc2-c2ccccc21 (racemic) [Compound 4j, 9-Fluorenylmethyl α-3-hydroxycarbonyl-2,4-di(2-methoxylphenyl)cyclobutane-1-carboxylate]
